Reference: a melting point compilation (Tetko et al.; mined from patent text by program, amines drawn as free bases though some values may be those of a salt)

| Compound | melting point [°C] |
| --- | --- |
| CCOCC(=O)OCC(=O)C1(O)CCC2C3CC(C)C4=CC(=O)C=CC4(C)C3C(O)CC21C (stereo not drawn) | 229 |
| Cc1nc(N)c2nc(CO)n(NCc3ccccc3)c2c1C | > 250 |
| CC1(C)CC(=O)c2cc(OCC(F)(F)F)c(OCC(F)(F)F)cc2O1 | 92 to 93 |
| CC(C)c1cccc(C(C)C)c1NC(=O)CN1CC2(CCCCC2)N(c2ccccc2)CC1=O | 158 to 160 |
| COC(=O)C1=C(C)NC(C)=C(C(=O)OCCN2CCN(c3ccccc3OC)CC2)C1c1cccc([N+](=O)[O-])c1 (stereo not drawn) | 58 |
| O=c1[nH]cc2n1-c1ccc(Cl)cc1C(c1ccccc1F)=NC2 | 247 to 250 |
| CN1CCC(OC2c3ccccc3CCn3c(I)cnc32)CC1 (stereo not drawn) | 163 |
| Nc1cc(-c2noc(-c3cnn4ccc(-c5ccc(C(F)(F)F)cc5)nc34)n2)ccn1 | 250 |
| CCCCN(Cc1ccc(-c2ccccc2-c2nnn[nH]2)cc1)c1ncncc1C(=O)OC(C)OC(=O)C(C)(C)C (stereo not drawn) | 71 to 85 |
| CCCCC(=O)OCc1cnc(C)c(O)c1 | 114 to 115 |
| NC(=O)c1ccc(-c2ccc3nnn(Cc4cc5cccnc5cc4F)c3n2)cc1Cl | 202 to 204 |
| COc1cc(OC)cc(C(=O)N2CCc3cc(OCc4ccccc4)ccc3C2=O)c1 | 158 to 159 |
| COc1ccc(NC(C)=O)cc1OCCCN1CCC(c2nsc3cc(F)ccc23)CC1 | 109 to 111 |
| CN1CCC(=C2c3ccccc3Sc3ccc(SC(F)(F)F)cc32)CC1 | 104 to 106 |
| CCc1noc(-c2ncc3[nH]c4cccc(Oc5ccc(Cl)cc5)c4c3c2COC)n1 | 170 |
| CCOc1cccnc1C(=O)NCCNC(=O)OC(C)(C)C | 125 to 126 |
| COc1ccc(C(=O)Nc2ccc(C3(CNC(C)=O)CC3)cc2)cc1OC | 204 to 206 |
| O=C(NC1CCN(CC(O)c2ccccc2)CC1)c1ccccc1 (stereo not drawn) | 178 to 180 |
| O=C(NCCCc1ccncc1)N(CCC(F)(F)F)CCC12CC3CC(CC(C3)C1)C2 | 108 to 109 |
| O=C(Nc1ccc2cc(CN3CCCC3)ccc2c1)c1ccc(-c2ccc(F)cc2)nc1 | 238 to 240 |
| CCOC(=O)c1c(-c2ccccc2)c2c3ccccc3cnn2c1C(C)C | 141 to 142 |
| CN1C2CCC1CC(O)(c1ccccc1)C2 (stereo not drawn) | 157 to 159 |
| CC(C)c1nc2c(cc1CO)COC(=O)N2c1ccc(F)cc1 | 154 |

| Compound | melting point [°C] |
| --- | --- |
| CCCCN1CCCN(c2ccccc2)c2cc(Cl)ccc21 | 159 to 161 |
| CCCCS(=O)(=O)c1c(Cl)nc(Cl)nc1Cl | 71 to 72 |
| O=C(Cn1ccnc1)Nc1cccc2nc(N[C@@H]3CCc4ccccc43)ccc12 | 226 |
| O=C(Nc1ccccc1)C1=CCN(Cc2c[nH]c3ncccc23)CC1 | 217 to 220 |
| COc1ccc(CNc2c(Cl)cnn(C)c2=O)cc1 | 94 to 96 |
| CS(=O)(=O)NC(=O)Nc1ccc(Cl)cc1 | 225 to 235 |
| CCOC(=O)C1CCN(c2nc(-c3ccc(Cl)cc3)c(CCCOc3ccccc3OC)o2)CC1 | 80 to 81 |
| Cc1cc(OC(=O)c2ccc(Cl)cc2)n(C)n1 | 100 to 101 |
| CCOC(=O)C1(Cc2ccc(OC)cc2)CCCC1 | 63.5 to 64.5 |
| O=C(O)C1CCCN(CCC#Cc2ccccc2)C1 (stereo not drawn) | 150 to 151 |
| Cc1cc(O)c(O)cc1S(=O)(=O)c1ccc(F)cc1 | 175 to 177 |
| COc1ccc(CC(C(=O)O)N(CCCNC(=O)OC(C)(C)C)C(=O)CBr)cc1 (stereo not drawn) | 79 to 81 |
| Cc1ccc(C(=O)c2ccc(Cl)cc2)cc1 | 129 to 130 |
| COc1cc(-c2nc3ccccc3n2Cc2ccc(C)cc2)cc(OC)c1OC | 84.5 |
| Cc1ccc(NCC(=O)Nc2ccc(S(N)(=O)=O)cc2Cl)cc1 | 215 to 216 |
| O=C(c1ccc([N+](=O)[O-])c(OCc2ccc(-c3ccccc3-c3nnnn3C(c3ccccc3)(c3ccccc3)c3ccccc3)cc2)c1)N1CCOCC1 | 188 to 190 |
| COc1cc(C=C2C(=O)CCc3ccccc32)c([N+](=O)[O-])cc1OC | 58 to 60 |
| N#Cc1ccc(N2CCC(=O)CC2)c2ccccc12 | 143 to 144 |
| Brc1cccc(Sc2ccccc2)n1 | 47 |
| COc1ccc(CC(=O)O)c(OCCc2ccccc2)c1 | 107 to 108 |
| N#CC(C(=O)CBr)c1cccc(Cl)c1 (stereo not drawn) | 124 to 132 |
| CS(=O)(=O)Oc1ccc(Oc2ccccc2)cc1CC(=O)O | 121 |
| O=S(=O)(CC1CCN(CCC2CCOc3ccccc32)CC1)Nc1ccccc1 (stereo not drawn) | 186 |

Other lines, results leading:

| melting point [°C] | Compound |
| --- | --- |
| 204 to 205 | O=C(O)c1cc(-c2ccc(C(F)(F)F)cc2)nc(C(F)(F)F)c1 |
| 135 to 137 | COC(=O)C(=C(C)C)N1CC(NC(=O)OCc2ccccc2)C1=O (stereo not drawn) |
| 99 to 101 | COc1ccc(-c2cc(Cl)c3ccc(OC)cc3n2)cc1 |
| 48 to 50 | Cc1cccc2c(Cl)c(Cl)sc12 |
| 180 to 181 | CCCc1ccc(S(=O)(=O)Nc2ccc3ncccc3c2)cc1 |
| 133 | CCOC(=O)CC(=O)c1cc(Cl)c(F)c(Cl)c1F |
| 157 to 160 | CC(=O)Nc1ccc(OCC(O)CNC(C)(C)C)c(-c2nnco2)c1 (stereo not drawn) |
| 149 | COC(=O)C1(Sc2cc(N=c3sc(=O)n4n3CCCC4)c(F)cc2Cl)CC1 |
| 172 to 174 | COc1cc(NC(=O)c2cc3cc(F)ccc3n2Cc2cccc(F)c2)cnc1N1CCCC1 |
| 121 to 123 | O=C(NCc1ccccc1)C1=C(C(=O)Nc2ccc(Cl)cc2F)CCCC1 |
| 244 to 251 | CCNC(=O)c1ccccc1Nc1nc(Nc2cc3c(cc2OC)CC(=O)N(CC)CC3)ncc1Cl |
| 124 to 126 | COc1cc(OC)nc(C(=O)c2nccc(-c3ccccc3)c2C(=O)OCc2ccccc2)n1 |
| 60 to 63 | CCOC(=O)CCCCCN(C)S(=O)(=O)C=C(C(C)=O)c1cccc([N+](=O)[O-])c1 |
| 145 to 170 | Nc1cccc(-c2ccc(CCNCc3ccc(Cl)c(Cl)c3)c3ccccc23)n1 |
| 63 | Cc1nnc(SCc2nc(NCCCOc3cccc(CN4CCCCC4)c3)n(C)n2)s1 |
| 125 to 127 | OC1CC(NCc2ccccc2)c2ccccc21 (stereo not drawn) |
| 77 to 79 | NNc1cc(OC2CCCC2)c(Cl)cc1F |
| 87 to 90 | CSc1cn(CC(C)N(O)C(N)=O)c2ccccc12 (stereo not drawn) |
| 139 to 140 | C[C@@H]1CN(C(=O)OC(C)(C)C)C[C@H]2Cc3cc(F)c(C=O)nc3N21 |
| 125 to 127 | Nc1ncc(CCO)s1 |
| 174 to 178 | CC1(C)Oc2cc(C#N)sc2[C@@H](N2CCCCC2=O)[C@@H]1OCc1ccccc1 (relative stereo) |
| 113 to 116 | CCOC(=O)c1ccc2c(c1)C=C(n1ccnc1)CC2 |
| 138 to 139 | Cc1ccccc1N1C(=O)CN2C(=O)CCC21 (stereo not drawn) |
| 195 to 196 | CCCc1nc2c(ccc3cc(C(=O)N4CCC(Cc5ccccc5)CC4)[nH]c32)o1 |
| 188 to 190 | CN(CCO)c1cc(Cl)nc(SCC(=O)O)n1 |
| 156 to 158 | COC(=O)Nc1cc(Cl)nc(NC(=O)OC)n1 |
| 141 to 144 | O=S(=O)(Cc1n[nH]c(-c2ccccc2)n1)c1ccccc1 |
